Data on 4 sequences can be found in patent US20070128217A1 (priority 2003, published 2007).

In assay [1] the test system is antibodies in sera from SARS patients (sera 1a, 1b, 2, 6, 37, 62, London, SARS-yellow, SARS-green). The assay is classed as binding, human. Also noted: Binding of serum 6 to linear peptides of protein X1 of SARS-CoV Urbani / Binding of serum 37 to linear peptides of protein X1 of SARS-CoV Urbani / Binding of serum 6 to looped/cyclic peptide (PEPSCAN-ELISA) / Binding of serum 37 to looped/cyclic peptide (PEPSCAN-ELISA) / Binding of serum 37 to looped/cyclic peptides of protein X1 of SARS-CoV Urbani / Binding of serum 6 to linear peptides of protein X2 / Binding of serum 37 to linear peptides of protein X2 / Binding of serum 37 to looped/cyclic peptides of protein X2 of SARS-CoV Urbani / Binding of serum 6 to linear peptides of protein M of SARS-CoV Urbani / Binding of serum 37 to linear peptides of protein M of SARS-CoV Urbani / Binding of serum 6 to looped/cyclic peptides of protein M of SARS-CoV Urbani / Binding of serum 37 to looped/cyclic peptides of protein M of SARS-CoV Urbani / Binding of serum 6 to linear peptides of protein X3 of SARS-CoV Urbani / Binding of serum 37 to linear peptides of protein X3 of SARS-CoV Urbani / Binding of serum 37 to looped/cyclic peptides of protein X3 of SARS-CoV Urbani / Binding of serum 6 to linear peptides of protein X4 of SARS-CoV Urbani / Binding of serum 37 to linear peptides of protein X4 of SARS-CoV Urbani / Binding of serum 37 to looped/cyclic peptides of protein X4 of SARS-CoV Urbani / Binding of serum 6 to linear peptides of protein X5 of SARS-CoV Urbani / Binding of serum 37 to linear peptides of protein X5 of SARS-CoV Urbani / Binding of serum 37 to looped/cyclic peptides of protein X5 of SARS-CoV Urbani / Binding of serum 6 to linear peptides of protein N of SARS-CoV Urbani / Binding of serum 37 to linear peptides of protein N of SARS-CoV Urbani / Binding of serum 6 to linear peptide (PEPSCAN-ELISA) / Binding of serum 1a to looped/cyclic peptides of protein N of SARS-CoV Urbani / Binding of serum 1b to looped/cyclic peptides of protein N of SARS-CoV Urbani / Binding of serum 2 to looped/cyclic peptides of protein N of SARS-CoV Urbani / Binding of serum 6 to looped/cyclic peptides of protein N of SARS-CoV Urbani / Binding of serum 37 to looped/cyclic peptides of protein N of SARS-CoV Urbani / Binding of serum 62 to looped/cyclic peptides of protein N of SARS-CoV Urbani / Binding of serum London to looped/cyclic peptides of protein N of SARS-CoV Urbani / Binding of serum SARS-green to looped/cyclic peptides of protein N of SARS-CoV Urbani: unit not given here.

Assay [2] has as its system control sera (pooled serum of ten healthy LUMC hospital workers; commercial negative donor pooled serum from the Dutch bloodbank). The assay is classed as binding, human. Also noted: Binding of Control serum LUMC to linear peptides / Binding of Control serum Blood-bank to linear peptides / Binding of Control serum LUMC to looped peptides / Binding of Control Serum Blood-Bank to Looped peptides / Binding of Control serum LUMC to linear peptides of the protein M of SARS-CoV Urbani / Binding of Control serum Blood-bank to linear peptides of the protein M of SARS-CoV Urbani / Binding of Control serum LUMC to looped peptides of the protein M of SARS-CoV Urbani / Binding of Control Serum Blood-Bank to Looped peptides of the protein M of SARS-CoV Urbani: unit not given here.

Assay [3] deals with rabbit serum obtained by immunizing a rabbit with the SARS-CoV strain Frankfurt 1. Format: binding. Details: Binding of a rabbit serum to linear peptides / Binding of a rabbit serum to looped peptides / Rabbit serum linear peptides / Rabbit serum looped peptides / Binding of a rabbit serum to linear peptides of protein N of SARS-CoV Urbani (Rabbit serum linear peptides) / Binding of a rabbit serum to looped/cyclic peptides of protein N of SARS-CoV Urbani (Rabbit serum looped peptides): unit not given here.

Regarding VTEGDGISTPKLKED, in assay [1], the “Binding of serum 1a to linear peptides of protein X1 of SARS-CoV Urbani” value was found to be 0.5, the “Binding of serum 1a to looped/cyclic peptides of protein X1 of SARS-CoV Urbani” value was 0.3, the “Binding of serum 1b to linear peptides of protein X1 of SARS-CoV Urbani” value turned out to be 0.4 and the “Binding of serum 1b to looped/cyclic peptides of protein X1 of SARS-CoV Urbani” value was 0.2. Besides, in assay [1], the “Binding of serum 2 to linear peptides of protein X1 of SARS-CoV Urbani” value was determined as 0.3, the “Binding of serum 2 to looped/cyclic peptides of protein X1 of SARS-CoV Urbani” value came out at 0.1, the “Binding of serum 6 to linear peptides of protein X1 of SARS-CoV Urbani” value was 0.3 and the “Binding of serum 6 to looped/cyclic peptides of protein X1 of SARS-CoV Urbani” value turned out to be 0.1. In assay [1], the “Binding of serum 37 to linear peptides of protein X1 of SARS-CoV Urbani” value came out at 0.4, the “Binding of serum 37 to looped/cyclic peptides of protein X1 of SARS-CoV Urbani” value stood at 0.3, the “Binding of serum 62 to linear peptides of protein X1 of SARS-CoV Urbani” value stood at 0.3 and the “Binding of serum 62 to looped/cyclic peptides of protein X1 of SARS-CoV Urbani” value is listed as 0.3. Besides, in assay [1], the “Binding of serum London to linear peptides of protein X1 of SARS-CoV Urbani” value is recorded as 0.3, the “Binding of serum London to looped/cyclic peptides of protein X1 of SARS-CoV Urbani” value turned out to be 0.2, the “Binding of serum SARS-green to linear peptides of protein X1 of SARS-CoV Urbani” value is given as 0.1 and the “Binding of serum SARS-green to looped/cyclic peptides of protein X1 of SARS-CoV Urbani” value was 0.1. Further, in assay [1], the “Binding of serum SARS-yellow to linear peptides of protein X1 of SARS-CoV Urbani” value stood at 0.2 and the “Binding of serum SARS-yellow to looped/cyclic peptides of protein X1 of SARS-CoV Urbani” value came out at 0.1. Also, in assay [2], the “Binding of Control Serum Blood-Bank to Looped peptides” value stood at 0.3, the “Binding of Control serum Blood-bank to linear peptides” value is 0.2, the “Binding of Control serum LUMC to linear peptides” value amounted to 0.2 and the “Binding of Control serum LUMC to looped peptides” value turned out to be 0.3. Moreover, in assay [3], the “Binding of a rabbit serum to linear peptides” value came out at 0.0 and the “Binding of a rabbit serum to looped peptides” value is 0.4.
Turning to VTIAEILIIIMRTFR, in assay [1], the “Binding of serum 1a to linear peptides of protein X3 of SARS-CoV Urbani” value is recorded as 0.7, the “Binding of serum 1a to looped/cyclic peptides of protein X3 of SARS-CoV Urbani” value worked out at 0.7, the “Binding of serum 1b to linear peptides of protein X3 of SARS-CoV Urbani” value is on record as 0.3 and the “Binding of serum 1b to looped/cyclic peptides of protein X3 of SARS-CoV Urbani” value is on record as 0.4. For the same sequence, in assay [1], the “Binding of serum 2 to linear peptides of protein X3 of SARS-CoV Urbani” value is 0.7, the “Binding of serum 2 to looped/cyclic peptides of protein X3 of SARS-CoV Urbani” value was found to be 0.7, the “Binding of serum 6 to linear peptides of protein X3 of SARS-CoV Urbani” value is recorded as 0.7 and the “Binding of serum 6 to looped/cyclic peptides of protein X3 of SARS-CoV Urbani” value worked out at 0.7. In addition, in assay [1], the “Binding of serum 37 to linear peptides of protein X3 of SARS-CoV Urbani” value is 0.4, the “Binding of serum 37 to looped/cyclic peptides of protein X3 of SARS-CoV Urbani” value is 0.6, the “Binding of serum 62 to linear peptides of protein X3 of SARS-CoV Urbani” value amounted to 0.6 and the “Binding of serum 62 to looped/cyclic peptides of protein X3 of SARS-CoV Urbani” value was found to be 0.5. Also, in assay [1], the “Binding of serum London to linear peptides of protein X3 of SARS-CoV Urbani” value was found to be 0.6, the “Binding of serum London to looped/cyclic peptides of protein X3 of SARS-CoV Urbani” value came to 0.3, the “Binding of serum SARS-green to linear peptides of protein X3 of SARS-CoV Urbani” value amounted to 0.5 and the “Binding of serum SARS-green to looped/cyclic peptides of protein X3 of SARS-CoV Urbani” value is on record as 0.2. In assay [1], the “Binding of serum SARS-yellow to linear peptides of protein X3 of SARS-CoV Urbani” value is listed as 0.3 and the “Binding of serum SARS-yellow to looped/cyclic peptides of protein X3 of SARS-CoV Urbani” value is reported as 0.6. Besides, in assay [2], the “Binding of Control Serum Blood-Bank to Looped peptides of the protein X3 of SARS-CoV Urbani” value came to 0.8, the “Binding of Control serum Blood-bank to linear peptides of the protein X3 of SARS-CoV Urbani” value is recorded as 0.8, the “Binding of Control serum LUMC to linear peptides of the protein X3 of SARS-CoV Urbani” value was 0.6 and the “Binding of Control serum LUMC to looped peptides of the protein X3 of SARS-CoV Urbani” value is listed as 0.8. In assay [3], the “Rabbit serum linear peptides” value turned out to be 0.2 and the “Rabbit serum looped peptides” value is 0.4.
Consider VTIYSHLLLVAAGME, for which, in assay [1], the “Binding of serum 1a to linear peptides of protein X1 of SARS-CoV Urbani” value is 0.8, the “Binding of serum 1a to looped/cyclic peptide (PEPSCAN-ELISA)” value is reported as 0.5, the “Binding of serum 1b to linear peptides of protein X1 of SARS-CoV Urbani” value came to 0.7 and the “Binding of serum 1b to looped/cyclic peptide (PEPSCAN-ELISA)” value amounted to 0.4. Also, in assay [1], the “Binding of serum 2 to linear peptides of protein X1 of SARS-CoV Urbani” value stood at 0.5, the “Binding of serum 2 to looped/cyclic peptide (PEPSCAN-ELISA)” value worked out at 0.5, the “Binding of serum 6 to linear peptides of protein X1 of SARS-CoV Urbani” value is on record as 0.4 and the “Binding of serum 6 to looped/cyclic peptide (PEPSCAN-ELISA)” value came to 0.3. For the same sequence, in assay [1], the “Binding of serum 37 to linear peptides of protein X1 of SARS-CoV Urbani” value was 0.6, the “Binding of serum 37 to looped/cyclic peptide (PEPSCAN-ELISA)” value came to 0.5, the “Binding of serum 62 to linear peptides of protein X1 of SARS-CoV Urbani” value came out at 0.6 and the “Binding of serum 62 to looped/cyclic peptide (PEPSCAN-ELISA)” value is reported as 0.4. In addition, in assay [1], the “Binding of serum London to linear peptides of protein X1 of SARS-CoV Urbani” value was 0.3, the “Binding of serum London to looped/cyclic peptide (PEPSCAN-ELISA)” value is on record as 0.2, the “Binding of serum SARS-green to linear peptides of protein X1 of SARS-CoV Urbani” value was found to be 0.3 and the “Binding of serum SARS-green to looped/cyclic peptide (PEPSCAN-ELISA)” value is 0.3. In addition, in assay [1], the “Binding of serum SARS-yellow to linear peptides of protein X1 of SARS-CoV Urbani” value amounted to 0.6 and the “Binding of serum SARS-yellow to looped/cyclic peptide (PEPSCAN-ELISA)” value is 0.3. Also, in assay [2], the “Binding of Control Serum Blood-Bank to Looped peptides” value is 0.4, the “Binding of Control serum Blood-bank to linear peptides” value amounted to 0.5, the “Binding of Control serum LUMC to linear peptides” value is 0.5 and the “Binding of Control serum LUMC to looped peptides” value was 0.6. In assay [3], the “Binding of a rabbit serum to linear peptides” value is listed as 0.1 and the “Binding of a rabbit serum to looped peptides” value turned out to be 0.5.
Take VTRPLMESELVIGAV: in assay [1], the “Binding of serum 1a to linear peptides of protein M of SARS-CoV Urbani” value was 0.8, the “Binding of serum 1b to linear peptides of protein M of SARS-CoV Urbani” value was found to be 0.6, the “Binding of serum 2 to linear peptides of protein M of SARS-CoV Urbani” value amounted to 0.9 and the “Binding of serum 6 to linear peptides of protein M of SARS-CoV Urbani” value was determined as 0.2. Also, in assay [1], the “Binding of serum 37 to linear peptides of protein M of SARS-CoV Urbani” value is given as 1.0, the “Binding of serum 62 to linear peptides of protein M of SARS-CoV Urbani” value is reported as 0.9, the “Binding of serum London to linear peptides of protein M of SARS-CoV Urbani” value came out at 0.3 and the “Binding of serum SARS-green to linear peptides of protein M of SARS-CoV Urbani” value amounted to 0.3. Also, in assay [1], the “Binding of serum SARS-yellow to linear peptides of protein M of SARS-CoV Urbani” value is reported as 0.1; the “Recognition of the peptide by sera of SARS-CoV infected individuals, and form (linear, looped/cyclic) in which it is recognized” value was “recognized in looped/cyclic form”. Also, in assay [2], the “Binding of Control Serum Blood-Bank to Looped peptides of the protein M of SARS-CoV Urbani” value came to 0.9, the “Binding of Control serum Blood-bank to linear peptides of the protein M of SARS-CoV Urbani” value worked out at 0.6, the “Binding of Control serum LUMC to linear peptides of the protein M of SARS-CoV Urbani” value was 0.4 and the “Binding of Control serum LUMC to looped peptides of the protein M of SARS-CoV Urbani” value turned out to be 1.0. Moreover, in assay [3], the “Rabbit serum linear peptides” value came to 0.4 and the “Rabbit serum looped peptides” value was determined as 0.2.
